“Also recorded” adds a separate entry of the source.
What was measured:
[1] = system: Foxp3; experiment: Foxp3 upregulation in naive CD4+CD25NEG A1 T cells in cocultures with IDO+ pDCs; assay type: cell-based, mouse
Experimental: FACS staining. Antibodies were from BD-Pharmingen unless otherwise noted. […] For intracellular staining of CHOP, live cells were first blocked for 10 minutes with mouse Fc Block (BD Pharmingen) in 10% fetal calf serum medium, stained with anti-CD4-FITC for 30 minutes on ice, washed with PBS, then fixed and permeablized for 20 minutes in 250 μl Cytoperm/Cytofix solution (BD Pharmingen) on ice. All subsequent staining and wash steps were in BD Permwash solution. […] For Foxp3 staining, assays omitted A1 bystander cells and Tregs were identified by CD4 expression, as for CHOP staining.
Therefore, whether IDO would induce naive CD4+ cells to differentiate into Foxp3^+ cells in this system was studied. Cocultures were set up as shown for FIG. 6A, comprising IDO^+ pDCs, OT-I, feeder cells, mature Tregs (Thy1.1 congenic), plus a population of CD4^+CD25^NEG T cells (naive male-specific A1 T cells isolated from female mice). CBA splenic DCs were also added to serve as APCs for the A1 cells. After two days, co-cultures were harvested and stained for intracellular Foxp3.

[2] = system: Tregs in TDLNs; settings: sustained-release 1MT throughout tumor growth
Experimental: Recombinant mouse IL-2 (R&D Systems) was used at 10 ng/ml.
Tregs from day seven TDLNs were sorted and added to readout assays (A1 T cells plus CBA DCs), with and without PD-1/PD-L blocking antibodies. […] Tregs from day seven tumors were tested in readout assays as above, with added isotype, PD-1/PD-L blocking antibodies, or a combination of anti-PD-1/PD-L plus IL-2 plus anti-IL-10/TGF-β antibodies.

[3] = system: CHOP; experiment: Intracellular staining for CHOP in Treg activation cultures; assay type: cell-based, mouse; settings: 2 days
Experimental: (§1) FACS staining. Antibodies were from BD-Pharmingen unless otherwise noted. Anti-mouse CD25-APC conjugate (clone PC61, cat. #17-0251-81) was from eBioscience; this conjugate gave brighter signal and better separation of CD25^+ cells than other conjugates from other suppliers. For intracellular staining of CHOP, live cells were first blocked for 10 minutes with mouse Fc Block (BD Pharmingen) in 10% fetal calf serum medium, stained with anti-CD4-FITC for 30 minutes on ice, washed with PBS, then fixed and permeablized for 20 minutes in 250 μl Cytoperm/Cytofix solution (BD Pharmingen) on ice. All subsequent staining and wash steps were in BD Permwash solution. Fixed cells were stained with 1:100 dilution of monoclonal anti-gadd153/CHOP (sc-7351, Santa Cruz Biotechnology), washed, and stained with secondary monoclonal rat anti-mouse-IgG1-PE (#550083, BD Biosciences). […] For Foxp3 staining, anti-Foxp3-PE antibody (clone FJK-16s) was obtained from eBioscience and used per the manufacturer's protocol. For Foxp3 staining, assays omitted A1 bystander cells and Tregs were identified by CD4 expression, as for CHOP staining. Biotinylated anti-PD-L1 (clone MIH5) and anti-PD-L2 (clone TY25) were purchased from eBioscience.
GCN2-kinase is required for Treg activation. […] Treg activation cultures were set up as in FIG. 2, and CHOP expression measured by intracellular staining after two days.

[4] = system: Tregs; experiment: Mixed co-cultures with bystander A1 cells; assay type: cell-based, mouse
Experimental: A1 T cells and CBA DCs were added directly to the Treg pre-activation assay at the start of culture. Thus, the combined cultures comprised IDO^+ pDCs, OT-I T cells, Tregs, A1 T cells, CBA splenic DCs, and feeder layer. […] However, the mixed co-cultures addressed the specific question of whether IDO and activated Tregs could produce effective levels of suppression rapidly enough that they could suppress the bystander A1 cells before they could begin dividing. […] In each case, parallel titrations were performed with or without the addition of anti-CD3 mAb. […] In the absence of Tregs there was substantial proliferation of T cells in co-cultures, despite the presence of IDO^+ pDCs. However, the addition of fewer than 5000 Tregs was sufficient to suppress proliferation of all cells in culture. […] Thus, the results of the mixed co-culture model were similar to those using the separate pre-activation and re-sorting step.
In FIG. 12A, mixed co-cultures were established as in FIG. 11, comprising Treg activation cultures (IDO^+ pDCs, OT-I cells, Tregs, and feeder layer) plus the direct addition of CFSE-labeled CD4^+ sorted A1 T cells plus CBA DCs plus HY peptide. After 2-3 days the mixed co-cultures were harvested and stained for CD25 versus CFSE. […] In FIG. 12B, IDO-activated Tregs were sorted as described in FIG. 2 and added to readout assays of A1 cells plus CBA DCs plus HY peptide. […]

[5] = system: Tregs; experiment: DC adoptive transfer; assay type: in vivo, mouse; settings: recipient mice treated with sustained-release 1MT pellets 5 mg/day; Tregs sorted after 4 days
Source text: DC adoptive transfer. […] Briefly, total CD11c^+ DCs were sorted from TDLNs, pulsed with […] peptide (SEQ ID NO:1), and 5×10^4 DCs injected subcutaneously into each anteriomedial thigh of recipient mice. Recipients had been pre-loaded one day before DC injection with 5×10^6 sorted CD8^+ OT-I cells. After four days, the inguinal LNs draining the site of DC injection were removed, and CD4^+CD25^+ Tregs were isolated by cell sorting.
IDO^+ DCs from TDLNs activate Tregs in vivo. To test the hypothesis that Treg activation in TDLNs might be related to the presence of IDO-expressing DCs, the DC population (CD11c^+ cells) from TDLNs was isolated and transferred to new, non-tumor-bearing hosts. […] Four days after DC transfer, host Tregs were sorted from LNs draining the site of DC injection and tested for suppressor activity. […] Thus, the DC fraction from TDLNs, by itself, was sufficient to activate resting Tregs in new hosts, in an IDO-dependent fashion.

[6] = system: PD-L1 and PD-L2; experiment: PD-L1 and PD-L2 staining of DCs in readout assays; assay type: cell-based, mouse; settings: Tregs from pre-activation cultures in which IDO was blocked with 1MT
Experimental: as §1, with “For Foxp3 staining, assays omitted A1 bystander cells and Tregs were identified by CD4 expression, as for CHOP staining. Biotinylated anti-PD-L1 (clone MIH5) and anti-PD-L2 (clone TY25) were purchased from eBioscience.” left out
After 24 hours, cultures were harvested and stained for PD-L1 and PD-L2 relative to CD11c. […] In FIG. 3D, IDO-activated Tregs (1×10^4/well) and anti-CD3/IL-2-activated Tregs (2×10^4/well) were prepared as in the previous panel, and added to readout assays with or without recombinant IL-2, anti-IL-10 plus anti-TGF-β blocking antibodies (100 μg/ml each), or PD-1/PD-L blocking antibodies. […]

[7] = system: Lewis Lung carcinoma; settings: Friberg et al., 2002; cited from earlier work
[8] = system: OT-I cells in TDLNs; experiment: CFSE labeling and T cell adoptive transfer; assay type: in vivo, mouse; settings: B16-OVA tumors, 4 days after transfer
Source text: CFSE labeling and T cell adoptive transfer. Mice were implanted with B16-OVA tumors. […] After four days, the TDLNs and contralateral LNs (CLN) were harvested and stained for 1B11 (BD-Pharmingen) vs. CD8.

[9] = system: P815; settings: Uyttenhove et al., 2003; concomitant administration of 1-MT; cited from earlier work
[10] = system: TDLN cells; assay type: in vivo, mouse
[11] = system: Tregs; experiment: Treg activation culture and readout assays (agent in pre-activation step); assay type: cell-based, mouse; settings: for IDO-induced Treg activation (suppressor activity of re-sorted Tregs in readout assays): agent added to activation (pre-activation) cultures with TDLN pDCs + OT-I + feeder cells, 1MT 200 uM, anti-CTLA4 10 ug/ml, tryptophan 250 uM, readout A1 T cells + CBA DCs
Experimental: Treg activation culture and readout assays. […] The pDC fraction (CD11c^+B220^+) was sorted from 2-6 pooled TDLNs (day 7-11 of tumor growth) and collected in medium on ice. […] […] […] After two days, cultures were harvested, stained for CD4, and Tregs isolated by sorting for CD4^+ cells. […] Re-sorted Tregs were added to readout assays containing 1×10^5 A1 cells, 2×10^3 CD11c^+ DCs from CBA spleen (or 5×10^4 B cells, as CD11c^NEG B220^+ spleen cells), plus H-Y peptide. For assays performed in transwells, Multiwell 96-well insert plates (1 uM pore size, BD-Falcon) were used and the number of cells in all groups was doubled.
Feeder layer. […] As a feeder layer we added T cell-depleted spleen cells (1×10^5 sorted CD4^NEGCD8^NEG cells) to all assays.
Resting Tregs, from spleens of mice without tumors, were co-cultured with IDO^+ DCs from TDLNs, then re-sorted and transferred to readout assays (A1 T cells+CBA DCs) to measure suppression. […] Co-cultures also contained a feeder layer of T-depleted spleen cells as described in the Methods section. After 30-48 hours, co-cultures were harvested and the Tregs recovered by sorting for CD4^+ cells. Since the Tregs were the only CD4^+ cells in the co-cultures, they could be unambiguously recovered.

[12] = system: anti-CD3-activated Tregs; experiment: Readout assays: suppression by anti-CD3/IL-2-activated Tregs; assay type: cell-based, mouse; settings: agent added to readout assay
Experimental: Treg activation culture and readout assays. […] The pDC fraction (CD11c^+B220^+) was sorted from 2-6 pooled TDLNs (day 7-11 of tumor growth) and collected in medium on ice. Pre-activation cultures contained 2×10^3 pDCs, 1×10^5 sorted CD8^+ OT-I cells, 100 nM […] peptide (SEQ ID NO:1), and 5×10^3 sorted CD4^+CD25^+ Tregs from spleens of B6 mice without tumors. All cultures received a feeder layer of 1×10^5 T cell-depleted spleen cells (CD4^NEGCD8^NEG), as described below. […] After two days, cultures were harvested, stained for CD4, and Tregs isolated by sorting for CD4^+ cells. […] Re-sorted Tregs were added to readout assays containing 1×10^5 A1 cells, 2×10^3 CD11c^+ DCs from CBA spleen (or 5×10^4 B cells, as CD11c^NEG B220^+ spleen cells), plus H-Y peptide. For assays performed in transwells, Multiwell 96-well insert plates (1 uM pore size, BD-Falcon) were used and the number of cells in all groups was doubled.
After 24 hours, cultures were harvested and stained for PD-L1 and PD-L2 relative to CD11c. […] In FIG. 3D, IDO-activated Tregs (1×10^4/well) and anti-CD3/IL-2-activated Tregs (2×10^4/well) were prepared as in the previous panel, and added to readout assays with or without recombinant IL-2, anti-IL-10 plus anti-TGF-β blocking antibodies (100 μg/ml each), or PD-1/PD-L blocking antibodies. Bars show SD for replicate wells in one of four similar experiments; *p<0.01 by ANOVA.

[13] = system: IDO-activated Tregs; experiment: Readout assays: suppression of A1 T cell proliferation by IDO-activated Tregs (agent in readout assay); assay type: cell-based, mouse; settings: agent added to readout assay (A1 T cells + wild-type CBA DCs); antibodies 50 ug/ml each
Experimental: Treg activation culture and readout assays. […] The pDC fraction (CD11c^+B220^+) was sorted from 2-6 pooled TDLNs (day 7-11 of tumor growth) and collected in medium on ice. […] All cultures received a feeder layer of 1×10^5 T cell-depleted spleen cells (CD4^NEGCD8^NEG), as described below. […] After two days, cultures were harvested, stained for CD4, and Tregs isolated by sorting for CD4^+ cells. […] Re-sorted Tregs were added to readout assays containing 1×10^5 A1 cells, 2×10^3 CD11c^+ DCs from CBA spleen (or 5×10^4 B cells, as CD11c^NEG B220^+ spleen cells), plus H-Y peptide. For assays performed in transwells, Multiwell 96-well insert plates (1 uM pore size, BD-Falcon) were used and the number of cells in all groups was doubled.

Molecule: Cn1cc(C[C@@H](N)C(=O)O)c2ccccc21 [1MT, 1-methyl-D-tryptophan]
- cell division of A1 cells (CFSE) ([1]; CFSE-labeled A1 and OT-I cells): divided
- upregulation of Foxp3 in A1 cells ([1]; with H-Y peptide, 2 days): prevented
- PD-1/PD-L-dependent type of Treg activity in TDLNs [2]: none
- CHOP expression in OT-I cells [3]: abrogated
- CHOP induction in Tregs ([3]; anti-Ia^b 100 ug/ml): prevented
- suppressor activity of Tregs in mixed co-cultures ([4]; IDO blocked by 1MT, 10-fold more Tregs, absence of anti-CD3 mAb): no spontaneous suppressor activity
- division of A1CFSE cells in mixed co-cultures ([4]; plus 1MT, 2-3 days): able to divide
- activation of host Tregs by DCs from TDLNs [5]: blocked
- PD-ligand expression by DCs in readout assays [6]: low
- tumor outgrowth [7]: significantly delayed
- 1B11 activation marker on OT-I in TDLNs ([8]; oral 1MT 2 mg/ml in drinking water): uniformly upregulate
- cell division of OT-I in TDLNs (CFSE) ([8]; oral 1MT): not able to undergo extensive cell division
- effect of IDO transfection of P815 on tumor growth in pre-immunized hosts [9]: substantially reversed
- suppression by TDLN cells of untreated control mice ([10]; 1MT added to the readout assays): not affected
- IDO-induced Treg activation (suppressor activity of re-sorted Tregs in readout assays) [11]: no suppressor activity; also recorded: complete abrogation of activation; also recorded: minimal suppression; also recorded: completely abolished
- Treg activation ([11]; feeder layer replaced by recombinant cytokines (IFNα + IL-10 + TGF-β1)): abrogated

Molecule: O=P1(N(CCCl)CCCl)NCCCO1 (centres unmarked) [cyclophosphamide]
- suppressor activity of TDLN cells after in vivo treatment ([10]; B78H1-GMCSF tumors treated day 11, CY 150 mg/kg, 1MT pellets, TDLN cells 7 days later, readout BM3 T cells + B6 splenocytes): only slightly

Molecule: N[C@@H](Cc1c[nH]c2ccccc12)C(=O)O [tryptophan]
- IDO-induced Treg activation (suppressor activity of re-sorted Tregs in readout assays) [11]: blocked

B1: recombinant IL-2: Recombinant mouse IL-2 (R&D Systems), used at 10 ng/ml (protein, UniProt P04351 21-169, looked up)
Interleukin-2: APTSSSTSSSTAEAQQQQQQQQQQQQHLEQLLMDLQELLSRMENYRNLKLPRMLTFKFYLPKQATELKDLQCLEDELGPLRHVLDLTQSKSFQLEDAENFISNIRVTVVKLKGSDNTFECQFDDESATVVDFLRRWIAFCQSIISTSPQ
- suppression by anti-CD3-activated Tregs [12]: fully reversed
- suppression of T cell proliferation by IDO-activated Tregs [13]: no effect

Source: patent US20100055111A1, “INDOLEAMINE 2,3-DIOXYGENASE, PD-1/PD-L PATHWAYS, AND CTLA4 PATHWAYS IN THE ACTIVATION OF REGULATORY T CELLS” (Med. College of Georgia Research Institute, Inc., priority 2007, published 2010)
